9 molecules from ChEMBL document CHEMBL5131490, “5-Substituted 3, 3', 4', 7-tetramethoxyflavonoids - A novel class of potent DNA triplex specific binding ligands” (Bioorg Med Chem Lett, 2022) can be followed below.

The source made the active and inactive calls. No cut-off for these calls is given here.

Assay [1] in a line: Binding affinity to triplex DNA1 containing 15 nucleotide-long triplex-forming region (unknown origin) assessed as change in melting temperature at 10 uM by UV based assay.
Assay [2] in a line: Stabilization of [poly(dA).poly(dT)] triplex DNA (unknown origin) assessed as change in melting temperature at 10 uM by UV based assay.
Assay [3] in a line: Stabilization of [poly(dA).2poly(dT) triplex DNA (unknown origin) assessed as increase in melting temperature at 1 uM by Thermal denaturation assay.
Assay [4] can be described thus: Stabilization of [poly(dA).2poly(dT) triplex DNA (unknown origin) assessed as melting temperature at 20 uM by Thermal denaturation assay.
A short description of assay [5]: Binding affinity to triplex DNA1 containing 15 nucleotide-long triplex-forming region (unknown origin) at 100 uM by ITC. In general terms: Isothermal titration calorimetry measures the heat released or taken up as one component is titrated into another.
The nature of assay [6]: Stabilization of [poly(dA).2poly(dT) triplex DNA (unknown origin) assessed as effect on CD spectrum up to 25 uM by CD spectroscopy.
Assay [7] is described as follows: Stabilization of [poly(dA).2poly(dT) triplex DNA (unknown origin) assessed as melting temperature at 10 uM by DSC assay (reference value: 36.8 degC).
A short description of assay [8]: Stabilization of [poly(dA).2poly(dT) triplex DNA (unknown origin) assessed as deltaS level temperature at 10 uM by DSC assay (reference value: 0.0167 mol.K). In general terms: Differential scanning calorimetry records heat flow against a reference as temperature is scanned.
A short description of assay [9]: Stabilization of [poly(dA).2poly(dT) triplex DNA (unknown origin) assessed as deltaH level temperature at 10 uM by DSC assay (reference value: 5.19 KJ/mol).

What is called ΔTm is the change in melting temperature against a reference sample. Turning to `CCCCCN(CCCCC)CCCCOc1cc(OC)cc2oc(-c3ccc(OC)c(OC)c3)c(OC)c(=O)c12`, the ΔTm worked out at 5.6 °C in assay [1] and 2.4 °C in assay [2].

In the case of `CCCN(CCC)CCCCOc1cc(OC)cc2oc(-c3ccc(OC)c(OC)c3)c(OC)c(=O)c12`, the figures for the ΔTm in assay [1] and in assay [2] were 11.2 °C and 10.3 °C, respectively.

As to `COc1cc(OCCCCN2CCN(C)CC2)c2c(=O)c(OC)c(-c3ccc(OC)c(OC)c3)oc2c1`, the shift in melting temperature (ΔTm) in [1] was 5.6 °C; in [2] it was 12.3 °C.

On to `COc1cc(OCCCCN2CCCCC2)c2c(=O)c(OC)c(-c3ccc(OC)c(OC)c3)oc2c1`, for which the ΔTm was 13.6 °C in assay [1], 6 °C in assay [3] and 16.4 °C in assay [2]. Moreover, the Tm in assay [4] was 24 °C.

`CCCCN(CCCC)CCCCOc1cc(OC)cc2oc(-c3ccc(OC)c(OC)c3)c(OC)c(=O)c12`: the ΔTm in [1] stood at 5.6 °C; in assay [2] it was 3.3 °C.

`NC[C@@H]1O[C@H](O[C@H]2[C@@H](O)[C@H](O[C@@H]3[C@@H](O)[C@H](N)C[C@H](N)[C@H]3O[C@H]3O[C@H](CN)[C@@H](O)[C@H](O)[C@H]3N)O[C@@H]2CO)[C@H](N)[C@@H](O)[C@@H]1O`: the Tm in [4] turned out to be 24 °C. This molecule came in with a Ka in assay [5] of 160000 M⁻¹.

For the molecule `COc1cc(O)c2c(=O)c(OC)c(-c3ccc(OC)c(OC)c3)oc2c1`, the outcome in assay [6] was Active. Also, in assay [7], the Tm was 38.5 °C. The ΔTm in assay [1] is 3.2 °C; in assay [2], 2.5 °C. Besides, the deltaS in [8] was 0.0167 KJ/(mol.K). Besides, the deltaH in [9] was 5.2 kJ/mol.

Consider `COc1cc(OCCCCN2CCCC2)c2c(=O)c(OC)c(-c3ccc(OC)c(OC)c3)oc2c1`, for which the outcome in assay [6] was Active. Further, the Tm in assay [7] was 48.9 °C. For the same molecule, the ΔTm in assay [1] came out at 12.6 °C; in assay [2], 17.4 °C. Besides, the deltaS in assay [8] was 0.0271 KJ/(mol.K). Further, the deltaH in assay [9] came to 8.7 kJ/mol. The Ka in [5] was determined as 310000 M⁻¹.

As to `CCN(CC)CCCCOc1cc(OC)cc2oc(-c3ccc(OC)c(OC)c3)c(OC)c(=O)c12`, the results for the shift in melting temperature (ΔTm) in assay [1] and in assay [2] were 11.2 °C and 14.5 °C, respectively.
